{
  "source": "patent US20100056482A1",
  "about": "“Calixarene Derivatives as Anticancer Agent” (CENTRE NATIONAL DE LA RECHERCHE SCIENTIFIQUE-CNRS, priority 2006, published 2010)",
  "type_in_all_cases": "cell-based",
  "key": {"[1]": {"system": "human PBMC (peripheral blood mononuclear cells)", "experiment": "MTS cell viability, human PBMC primary culture (Example 3)", "conditions": "primary culture of human PBMC (WBC, healthy lymphocytes), read-out: IC50 (mean concentration for 50% mortality)", "experimental": "(§1) The cells (0.2×10^6/ml) were incubated in a sterile fashion in 100 μl of culture medium (RPMI-1640 supplemented with 10% foetal calf serum, penicillin, streptomycin and amphotericin B) at day DO with variable quantities (from […]) of C4diP at 37° C. and 5% CO2 in a water-saturated atmosphere. At the 4th day, 20 μl of MTS (non-radioactive cell proliferation test (Promega Cat. #: G 3580) is added to the previous 100 μl and then a spectrophotometric reading is carried out at 490 nm after 2 hours of incubation against reagent blanks.\nIn order to determine the anticancer effect of C4diP on a particular culture of tumour cells, the IC50 was calculated.\nThe protocol used is that described previously in example 1. When vinblastin is used in the culture medium, it replaces C4diP."}, "[2]": {"system": "Hep-G2 hepatocellular carcinoma cells", "experiment": "MTS cell viability, HepG2 (Example 2)", "conditions": "Homo sapiens; HepG2, MTS on 3rd day", "experimental": "as §1, with “of C4diP, tBuC4diP or C8C4diP” for “of C4diP”, “atmosphere. On” for “atmosphere. At”, “the 3rd” for “the 4th”, “MTS (non radioactive” for “MTS (non-radioactive”, “3580) are” for “3580) is”\n(§2) The cell lines used are as follows: • keratinocytes • WBC: leucocytes • MEWO: human skin melanoma • jurkat: T-cell acute lymphoblastic leukaemia. Cells of the T-lymphocyte type. • HL-60: promyelocytary acute leukaemia. Cells of the promyeloblast type. • Huh7: human hepatoma • Hep-G2: hepatocellular carcinoma.\n(§3) The anticancerous effect of C4diP, tBuC4diP and C8C4diP is evaluated by measuring cell viability as a function of variable quantities of these compounds.\n(§4) In order to determine the anticancer effect of C4diP, tBuC4diP and C8C4diP on a particular tumour cell culture, the IC50 was calculated."}, "[3]": {"system": "jurkat T-cell acute lymphoblastic leukaemia cells", "experiment": "MTS cell viability, Jurkat (Example 2)", "conditions": "Homo sapiens, MTS on 3rd day", "experimental": "as §1, with “of C4diP, tBuC4diP or C8C4diP” for “of C4diP”, “atmosphere. On” for “atmosphere. At”, “the 3rd” for “the 4th”, “MTS (non radioactive” for “MTS (non-radioactive”, “3580) are” for “3580) is”\nas §2, §3, §4"}, "[4]": {"system": "WBC (leucocytes), non tumoral cells", "experiment": "MTS cell viability, WBC (Example 2)", "conditions": "Leucocyte, MTS on 3rd day", "experimental": "as §1, with “of C4diP, tBuC4diP or C8C4diP” for “of C4diP”, “atmosphere. On” for “atmosphere. At”, “the 3rd” for “the 4th”, “MTS (non radioactive” for “MTS (non-radioactive”, “3580) are” for “3580) is”\nas §2, §3, §4"}, "[5]": {"system": "keratinocytes, non tumoral cells", "experiment": "MTS cell viability, keratinocytes (Example 2)", "conditions": "Keratinocyte, Keratonicytes, MTS on 3rd day", "experimental": "as §1, with “of C4diP, tBuC4diP or C8C4diP” for “of C4diP”, “atmosphere. On” for “atmosphere. At”, “the 3rd” for “the 4th”, “MTS (non radioactive” for “MTS (non-radioactive”, “3580) are” for “3580) is”\nas §2, §3, §4"}, "[6]": {"system": "HL-60 promyelocytary acute leukaemia cells", "experiment": "MTS cell viability, HL-60 (Example 2)", "conditions": "Homo sapiens; HL-60, MTS on 3rd day", "experimental": "as §1, with “of C4diP, tBuC4diP or C8C4diP” for “of C4diP”, “atmosphere. On” for “atmosphere. At”, “the 3rd” for “the 4th”, “MTS (non radioactive” for “MTS (non-radioactive”, “3580) are” for “3580) is”\nas §2, §3, §4"}, "[7]": {"system": "MEWO human skin melanoma cells", "experiment": "MTS cell viability, Mewo (Example 2)", "conditions": "MTS on 3rd day", "experimental": "as §1, with “of C4diP, tBuC4diP or C8C4diP” for “of C4diP”, “atmosphere. On” for “atmosphere. At”, “the 3rd” for “the 4th”, “MTS (non radioactive” for “MTS (non-radioactive”, “3580) are” for “3580) is”\nas §2, §3, §4"}, "[8]": {"system": "Huh7 human hepatoma cells", "experiment": "MTS cell viability, Huh7 (Example 2)", "conditions": "Huh 7, MTS on 3rd day", "experimental": "as §1, with “of C4diP, tBuC4diP or C8C4diP” for “of C4diP”, “atmosphere. On” for “atmosphere. At”, “the 3rd” for “the 4th”, “MTS (non radioactive” for “MTS (non-radioactive”, “3580) are” for “3580) is”\nas §2, §3, §4"}},
  "data": [
    {"smiles": "CC[C@]1(O)C[C@@H]2CN(CCc3c([nH]c4ccccc34)[C@@](C(=O)OC)(c3cc4c(cc3OC)N(C)[C@H]3[C@@](O)(C(=O)OC)[C@H](OC(C)=O)[C@]5(CC)C=CCN6CC[C@]43[C@@H]65)C2)C1", "note": "[vinblastin, reference compound]", "values": [
      {"measurement": "IC50", "setting": "[1]", "result": 0.005, "unit": "µM"}
    ]},
    {"smiles": "CCCCCCCC(=O)/C(C)=C/C(Cc1cc(C(=O)CCCCCCC)cc(Cc2cc(C(=O)CCCCCCC)cc(Cc3cc(C(=O)CCCCCCC)cc(CC)c3OP(=O)(O)O)c2O)c1OP(=O)(O)O)=C(\\C)O", "note": "[C8C4diP, para-octanoyl-calyx[4]arene dihydroxyphosphonic acid]", "values": [
      {"measurement": "IC50", "setting": "[2]", "result": 1000, "unit": "µM"},
      {"measurement": "IC50", "setting": "[3]", "result": 113, "unit": "µM"},
      {"measurement": "IC50", "setting": "[4]", "result": 95, "unit": "µM"},
      {"measurement": "IC50", "setting": "[5]", "result": 46, "unit": "µM"},
      {"measurement": "IC50", "setting": "[6]", "result": 1000, "unit": "µM"},
      {"measurement": "IC50", "setting": "[7]", "result": 1000, "unit": "µM"},
      {"measurement": "IC50", "setting": "[8]", "result": 270, "unit": "µM"}
    ]}
  ]
}
